# Marks after values point to notes of the source that are not given here.
# Tests used:
# Septoria tritici = assay: Test J: wheat leaf blotch, preventive spray on wheat seedlings; type: in vivo
# Text: A dash (-) indicates no test results.
# Septoria nodorum = assay: Test H: wheat glum blotch, preventive spray on wheat seedlings
# Experimental: (the causal agent of wheat glum blotch) and incubated in a saturated atmosphere at 20° C. for 48 h, and then moved to a growth chamber at 22° C. for 5 days, after which disease ratings were made.
# Plasmopara viticola = assay: Test D: grape downy mildew, spray after inoculation of grape seedlings; type: in vivo
# Text: Upon removal, disease ratings were made. […] A dash (-) indicates no test results.
# Sclerotinia sclerotiorum = assay: Test C: cucumber white mold, preventive spray on cucumber seedlings
# [1] = system: Colletotrichum orbiculare; assay: Test B: cucumber Colletotrichum anthracnose, preventive spray on cucumber seedlings
# fusarium graminearium = assay: Test I: wheat head scab, preventive spray on wheat seedlings
# Experimental: (the causal agent of wheat head scab) and incubated in a saturated atmosphere at 20° C. for 72 h, and then moved to a growth chamber at 22° C. for 5 days, after which disease ratings were made.
# Phytophthora infestans = assay: whole plant or invertebrate; type: in vivo
# [2] = system: Puccinia recondita f. sp. tritici; assay: Test K: wheat leaf rust, preventive spray on wheat seedlings
# Rhizoctonia oryzae = assay: Test G: turf brown patch, preventive spray on creeping bent grass seedlings
# Experimental: (the causal agent of turf brown patch) and incubated in a saturated atmosphere at 27° C. for 24 h, and then moved to a growth chamber at 27° C. for 5 days, after which disease ratings were made.
# Pythium aphanidermatum = assay: Test A: bluegrass pythium blight, preventive spray on bluegrass seedlings
# [3] = system: Erysiphe graminis f. sp. tritici; assay: Test L: wheat powdery mildew, preventive spray on wheat seedlings
# Botrytis cinerea = assay: Test E: tomato botrytis, preventive spray on tomato seedlings
# [4] = 40 ppm (marked *), 100 = 100% disease control, 0 = no control
# [5] = 200 ppm, 100 = 100% disease control, 0 = no control
Compound,Test J disease control rating (Septoria tritici; 40 ppm (*)),Test H disease control rating (Septoria nodorum; 40 ppm (*)),Test D disease control rating (Plasmopara viticola; 200 ppm),Test C disease control rating (Sclerotinia sclerotiorum; 200 ppm),Test B disease control rating ([1]; 40 ppm (*)),Test I disease control rating (fusarium graminearium; 200 ppm),Test F disease control rating (Phytophthora infestans; 200 ppm),Test K disease control rating ([2]; 40 ppm (*)),Test G disease control rating (Rhizoctonia oryzae; 40 ppm (*)),Test A disease control rating (Pythium aphanidermatum; 200 ppm),Test L disease control rating ([3]; 40 ppm (*)),Test E disease control rating (Botrytis cinerea; 40 ppm (*)),Test D disease control rating (Plasmopara viticola; 40 ppm (*)),Test C disease control rating (Sclerotinia sclerotiorum; 40 ppm (*)),Test I disease control rating (fusarium graminearium; 40 ppm (*)),Test F disease control rating (Phytophthora infestans; 40 ppm (*)),Test A disease control rating (Pythium aphanidermatum; 40 ppm (*)),other results
CCc1nccn1-c1nc(Cl)c(-c2c(F)cccc2F)n(CC(C)CC)c1=O (stereo not drawn) [compound 70],83* %,0* %,0%,0%,0* %,0%,0%,55* %,0* %,0%,0* %,0* %,,,,,,
CC(C)Cn1c(-c2ccccc2)c(Cl)nc(-n2cncn2)c1=O [compound 173],45* %,0* %,,,0* %,,,0* %,0* %,,0* %,0* %,0* %,0* %,0* %,0* %,0* %,
CC(C)Cn1c(-c2cccc(C(F)(F)F)c2)c(Cl)nc(-n2cncn2)c1=O [compound 232],0* %,0* %,,,0* %,,,0* %,0* %,,0* %,0* %,0* %,0* %,0* %,0* %,0* %,
CCC(C)Cn1c(-c2c(F)cccc2F)c(Cl)nc(-n2ccc(C#N)n2)c1=O (stereo not drawn) [compound 81],52* %,0* %,0%,0%,0* %,0%,0%,68* %,31* %,0%,0* %,93* %,,,,,,
CC(C)Cn1c(Cc2ccccc2)c(Cl)nc(-n2cncn2)c1=O [compound 128],0* %,0* %,,,0* %,,,0* %,0* %,,0* %,0* %,0* %,0* %,0* %,0* %,0* %,
CCCCn1c(-c2ccc(F)cc2Cl)c(Br)nc(-n2ccc(C)n2)c1=O [compound 285],,,,,,,,,,,,,,,,,,"Test J disease control rating (Septoria tritici; [4]): 100* %; Test H disease control rating (Septoria nodorum; [4]): 85* %; Test D disease control rating (Plasmopara viticola; [4]): 0* %; Test C disease control rating (Sclerotinia sclerotiorum; [4]): 0* %; Test B disease control rating [1, 4]: 0* %; Test I disease control rating (fusarium graminearium; [4]): 0* %; Test F disease control rating (Phytophthora infestans; [4]): 0* %; Test K disease control rating [2, 4]: 89* %; Test G disease control rating (Rhizoctonia oryzae; [4]): 0* %; Test A disease control rating (Pythium aphanidermatum; [4]): 0* %; Test L disease control rating [3, 4]: 92* %; Test E disease control rating (Botrytis cinerea; [4]): 99* %"
CC(C)Cn1c(-c2c(F)cccc2C(F)(F)F)c(Cl)nc(-n2cccn2)c1=O [compound 87],,,0%,95%,,18%,0%,,,0%,,,,,,,,Test J disease control rating (Septoria tritici; 200 ppm): 74%; Test H disease control rating (Septoria nodorum; 200 ppm): 100%; Test B disease control rating ([1]; 200 ppm): 100%; Test K disease control rating ([2]; 200 ppm): 100%; Test G disease control rating (Rhizoctonia oryzae; 200 ppm): 99%; Test L disease control rating ([3]; 200 ppm): 100%; Test E disease control rating (Botrytis cinerea; 200 ppm): 100%
CS(=O)(=O)CCn1c(-c2c(F)cccc2F)c(Cl)nc(-n2cccn2)c1=O [compound 126],19* %,0* %,,,0* %,,,0* %,0* %,,0* %,0* %,0* %,0* %,0* %,0* %,0* %,
CCCCn1c(-c2ccc(F)cc2Cl)c(Cl)nc(-n2ccc(C)n2)c1=O [compound 265],,,,,,,,,,,,,,,,,,"Test J disease control rating (Septoria tritici; [4]): 100* %; Test H disease control rating (Septoria nodorum; [4]): 95* %; Test D disease control rating (Plasmopara viticola; [4]): 0* %; Test C disease control rating (Sclerotinia sclerotiorum; [4]): 0* %; Test B disease control rating [1, 4]: 90* %; Test I disease control rating (fusarium graminearium; [4]): 0* %; Test F disease control rating (Phytophthora infestans; [4]): 0* %; Test K disease control rating [2, 4]: 94* %; Test G disease control rating (Rhizoctonia oryzae; [4]): 50* %; Test A disease control rating (Pythium aphanidermatum; [4]): 0* %; Test L disease control rating [3, 4]: 91* %; Test E disease control rating (Botrytis cinerea; [4]): 100* %"
CC(C)Cn1c(-c2cc(Br)c3c(c2)OCO3)c(Cl)nc(-n2cncn2)c1=O [compound 115],0* %,0* %,0%,0%,0* %,0%,0%,0* %,0* %,0%,0* %,0* %,,,,,,
CCC(C)CNC(=O)c1nc(Cl)c(-c2c(F)cccc2F)n(CC(C)CC)c1=O (stereo not drawn) [compound 301],,,,,,,,,,,,,,,,,,"Test J disease control rating (Septoria tritici; [5]): 98%; Test H disease control rating (Septoria nodorum; [5]): 87%; Test D disease control rating (Plasmopara viticola; [5]): 0%; Test C disease control rating (Sclerotinia sclerotiorum; [5]): 0%; Test B disease control rating [1, 5]: 0%; Test I disease control rating (fusarium graminearium; [5]): 0%; Test F disease control rating (Phytophthora infestans; [5]): 0%; Test K disease control rating [2, 5]: 99%; Test G disease control rating (Rhizoctonia oryzae; [5]): 0%; Test A disease control rating (Pythium aphanidermatum; [5]): 0%; Test L disease control rating [3, 5]: 68%; Test E disease control rating (Botrytis cinerea; [5]): 100%"
CC(C)Cn1c(-c2cccnc2)c(Cl)nc(-n2cccn2)c1=O [compound 237],24* %,0* %,,,0* %,,,0* %,0* %,,0* %,0* %,0* %,0* %,0* %,0* %,0* %,

# — patent publication US20080194585A1, “Fungicidal Pyrazine Derivatives” (priority 2005, published 2008)
